Assays:
[1] = target: full length human FXR protein (Homo sapiens (Human), UniProt Q96RI1); experiment: FXR cellular assay (FXR-SRCP β-gal enzyme fragment complementation in CHO-K1 cells, chemiluminescence); assay type: cell-based; conditions: CHO-K1 cells with SRCP-EA and ProLink-labeled FXR, 0-10 micromolar compound, 37° C. for 6h, read-out: EC50 FXR-cell Luminescence/
Text: A cell based FXR assay was used to detect protein-protein interactions between an activated (ligand-bound), full length human FXR protein and a nuclear fusion protein containing a Steroid Receptor Coactivator Peptide (SCRP) domain. In this approach, two weakly complementing fragments of the 3-gal enzyme were expressed within stably transfected Chinese Hamster Ovary (CHO-K1) cells. The complementing fragments of the 3-gal enzyme (ProLink, PK; and Enzyme Acceptor, EA) were translationally fused to the C-terminus of a full-length FXR and to the SRCP, respectively. Complementation was driven by the protein-protein interaction between SRCP-EA and a ProLink-labeled FXR. Upon FXR-SRCP binding, the two fragments of 3-gal complement, forming a functional enzyme capable of hydrolyzing a substrate molecule and generating a chemiluminescent signal.
CHO-K1 cells containing SRCP-EA and ProLink-labeled FXR were plated in 384-well microplates and incubated at 37° C. overnight. A positive control FXR agonist, GW4064 (0-10 micromolar), or test compounds (0-10 micromolar) were added to plated cells and incubated at 37° C. for 6h (final DMSO vehicle concentration was 1%). The assay signal was generated by addition of 50% (v/v) detection reagent (19:5:1, cell assay buffer: substrate reagent 1: substrate reagent 2, DiscoverX) followed by incubation for 1h at ambient room temperature. Microplates were analyzed using an Envision reader (PerkinElmer Life and Analytical Sciences, Signal=chemiluminescence).

[2] = target: ligand binding domain (LBD) of recombinant human FXR (Homo sapiens (Human), UniProt Q96RI1); experiment: FXR cell free coactivator (SRC-1) recruitment assay, TR-FRET; conditions: FXR LBD (amino acids 244-476) with labeled SRC-1 domain, 25° C. for 60 minutes, activity relative to CDCA maximum; read-out: EC50 FXR- Biochemical TR-FRET/μM
Sequence of ligand binding domain (LBD) of recombinant human FXR (Q96RI1 254-486): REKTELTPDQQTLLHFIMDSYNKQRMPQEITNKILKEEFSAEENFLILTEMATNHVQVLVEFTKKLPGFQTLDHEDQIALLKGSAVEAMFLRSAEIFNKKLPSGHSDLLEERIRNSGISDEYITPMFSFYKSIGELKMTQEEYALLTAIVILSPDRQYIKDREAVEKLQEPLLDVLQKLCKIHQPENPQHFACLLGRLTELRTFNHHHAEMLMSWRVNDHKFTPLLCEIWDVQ
Sequence of ligand binding domain (LBD) of recombinant human FXR (Q15788 whole entry partner, the tested form may be a part): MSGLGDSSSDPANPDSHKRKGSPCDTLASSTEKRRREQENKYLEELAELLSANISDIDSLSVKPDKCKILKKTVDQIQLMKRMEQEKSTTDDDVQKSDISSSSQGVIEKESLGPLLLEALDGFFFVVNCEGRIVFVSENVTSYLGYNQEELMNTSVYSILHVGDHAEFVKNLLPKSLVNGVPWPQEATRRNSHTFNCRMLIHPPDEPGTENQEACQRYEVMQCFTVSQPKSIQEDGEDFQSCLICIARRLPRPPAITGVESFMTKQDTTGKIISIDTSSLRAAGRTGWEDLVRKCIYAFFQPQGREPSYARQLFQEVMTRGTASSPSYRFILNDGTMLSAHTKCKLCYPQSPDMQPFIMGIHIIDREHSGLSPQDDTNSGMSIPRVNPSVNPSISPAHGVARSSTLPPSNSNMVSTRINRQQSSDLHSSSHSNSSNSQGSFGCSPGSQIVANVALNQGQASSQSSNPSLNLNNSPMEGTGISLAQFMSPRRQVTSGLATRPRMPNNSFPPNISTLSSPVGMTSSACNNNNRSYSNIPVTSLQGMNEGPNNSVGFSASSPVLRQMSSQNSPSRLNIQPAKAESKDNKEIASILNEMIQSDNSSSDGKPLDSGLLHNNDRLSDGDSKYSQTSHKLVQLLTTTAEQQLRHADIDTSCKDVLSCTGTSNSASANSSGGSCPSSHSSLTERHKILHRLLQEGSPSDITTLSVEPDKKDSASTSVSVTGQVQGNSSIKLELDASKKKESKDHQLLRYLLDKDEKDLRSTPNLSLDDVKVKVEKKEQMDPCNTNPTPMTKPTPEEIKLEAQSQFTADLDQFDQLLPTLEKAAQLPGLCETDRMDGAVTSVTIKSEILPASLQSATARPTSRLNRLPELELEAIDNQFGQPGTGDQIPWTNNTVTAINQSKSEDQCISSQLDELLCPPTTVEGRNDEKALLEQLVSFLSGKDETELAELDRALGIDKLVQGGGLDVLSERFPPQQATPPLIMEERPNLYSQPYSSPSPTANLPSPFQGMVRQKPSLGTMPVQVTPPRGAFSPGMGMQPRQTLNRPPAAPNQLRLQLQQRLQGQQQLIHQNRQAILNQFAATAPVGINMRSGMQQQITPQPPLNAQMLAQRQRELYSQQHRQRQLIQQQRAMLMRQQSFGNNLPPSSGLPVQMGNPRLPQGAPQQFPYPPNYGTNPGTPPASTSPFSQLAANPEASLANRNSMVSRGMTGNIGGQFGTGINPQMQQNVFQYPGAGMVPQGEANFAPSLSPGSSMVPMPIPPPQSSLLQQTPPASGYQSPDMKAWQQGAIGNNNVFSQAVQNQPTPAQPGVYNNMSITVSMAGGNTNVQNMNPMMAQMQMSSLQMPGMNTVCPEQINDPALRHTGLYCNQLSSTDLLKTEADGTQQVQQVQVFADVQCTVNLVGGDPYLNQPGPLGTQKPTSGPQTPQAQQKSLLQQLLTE
Method: A cell free coactivator recruitment assay was developed for FXR, to measure the functional potency of novel FXR compounds. In this assay, novel FXR compounds were bound to the ligand binding domain (LBD) of recombinant human FXR. The ability of this liganded homodimeric complex to recruit the co-activator protein steroid receptor coactivator 1 (SRC-1) was measured using Time-Resolved Fluorescence Resonance Energy Transfer (TR-FRET).
The LBD of human FXR (amino acids 244-476) was cloned into an expression vector for protein expression in SF9 insect cells. Purified FXR LBD was incubated in TR-FRET coregulator buffer G (Eurofins) with test compounds (0-10 micromolar) and a labeled nuclear receptor interaction domain of SRC-1 at 25° C. for 60 minutes (final DMSO vehicle concentration was 1.2%). Assays were analyzed using an Envision TR-FRET reader (PerkinElmer Life and Analytical Sciences). Compound activity at each concentration was defined as a percentage of the maximal activity of the natural FXR ligand agonist chenodeoxycholic acid (CDCA) generating a dose response curve.

Sequence of full length human FXR protein (Q96RI1 whole entry, the tested form may be a part): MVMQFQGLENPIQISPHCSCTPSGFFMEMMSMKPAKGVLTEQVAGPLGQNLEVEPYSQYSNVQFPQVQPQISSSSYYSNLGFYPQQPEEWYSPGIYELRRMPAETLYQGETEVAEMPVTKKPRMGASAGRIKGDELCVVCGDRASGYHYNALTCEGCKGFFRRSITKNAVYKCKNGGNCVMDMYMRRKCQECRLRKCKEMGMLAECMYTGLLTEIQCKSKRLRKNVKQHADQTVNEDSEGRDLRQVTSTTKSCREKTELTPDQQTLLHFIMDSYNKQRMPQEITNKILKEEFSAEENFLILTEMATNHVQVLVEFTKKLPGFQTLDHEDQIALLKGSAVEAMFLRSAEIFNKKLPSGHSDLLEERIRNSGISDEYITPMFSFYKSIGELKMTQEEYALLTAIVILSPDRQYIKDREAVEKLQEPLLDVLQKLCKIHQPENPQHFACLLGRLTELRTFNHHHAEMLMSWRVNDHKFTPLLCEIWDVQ

EC50 [1]	EC50 [2]	SMILES
1630 nM	0.143 µM	O=c1cc(-c2ccc(N3CCC(OCc4c(-c5ccccc5OC(F)(F)F)noc4C4CC4)CC3)cc2)o[nH]1 [Example 52, 5-(4-(4-((5-cyclopropyl-3-(2-(trifluoromethoxy)phenyl)isoxazol-4-yl)methoxy)piperidin-1-yl)phenyl)isoxazol-3(2H)-one]
154 nM	0.0161 µM	O=c1[nH]c(-c2ccc(N3CCC(OCc4c(-c5c(Cl)cccc5Cl)noc4C4CC4)CC3)c(F)c2)no1 [Example 39, 3-(4-(4-((5-cyclopropyl-3-(2,6-dichlorophenyl)isoxazol-4-yl)methoxy)piperidin-1-yl)-3-fluorophenyl)-1,2,4-oxadiazol-5(4H)-one]
3620 nM	0.296 µM	O=c1[nH]c(-c2cc(N3CCC(OCc4c(-c5c(Cl)cccc5Cl)noc4C4CC4)CC3)cs2)no1 [Example 30, 3-(4-(4-((5-cyclopropyl-3-(2,6-dichlorophenyl)isoxazol-4-yl)methoxy)piperidin-1-yl)thiophen-2-yl)-1,2,4-oxadiazol-5(4H)-one]
24.7 nM	0.0021 µM	C[C@@H]1C[C@H](OCc2c(-c3c(Cl)cccc3Cl)noc2C2CC2)CCN1c1ccc(-c2noc(=O)[nH]2)cn1 [Example 71, 3-(6-((2R,4R)-4-((5-cyclopropyl-3-(2,6-dichlorophenyl)isoxazol-4-yl)methoxy)-2-methylpiperidin-1-yl)pyridin-3-yl)-1,2,4-oxadiazol-5(4H)-one]
113 nM	0.0188 µM	O=c1[nH]c(-c2ccc(N3CCC(OCc4c(-c5ccccc5OC(F)(F)F)noc4C4CC4)CC3)cc2)no1 [Example 36, 3-(4-(4-((5-cyclopropyl-3-(2-(trifluoromethoxy)phenyl)isoxazol-4-yl)methoxy)piperidin-1-yl)phenyl)-1,2,4-oxadiazol-5(4H)-one]
341 nM	0.076 µM	O=c1[nH]nc(-c2ccc(N3CCC(OCc4c(-c5c(Cl)cccc5Cl)noc4C4CC4)CC3)cn2)o1 [Example 40, 5-(5-(4-((5-cyclopropyl-3-(2,6-dichlorophenyl)isoxazol-4-yl)methoxy)piperidin-1-yl)pyridin-2-yl)-1,3,4-oxadiazol-2(3H)-one]
350 nM	0.0476 µM	C[C@@H]1C[C@H](OCc2c(-c3c(F)cccc3F)noc2C2CC2)CCN1c1ccc(-c2noc(=O)[nH]2)cn1 [Example 73, 3-(6-((2R,4R)-4-((5-cyclopropyl-3-(2,6-difluorophenyl)isoxazol-4-yl)methoxy)-2-methylpiperidin-1-yl)pyridin-3-yl)-1,2,4-oxadiazol-5(4H)-one]
10000 nM	0.139 µM	O=c1[nH]c(-c2cc(N3CCC(OCc4c(-c5c(Cl)cccc5Cl)noc4C4CC4)CC3)no2)no1 [Example 42, 3-(3-(4-((5-cyclopropyl-3-(2,6-dichlorophenyl)isoxazol-4-yl)methoxy)piperidin-1-yl)isoxazol-5-yl)-1,2,4-oxadiazol-5(4H)-one]
2310 nM	0.07 µM	O=c1[nH]c(-c2ccc(N3CCC(OCc4c(-c5ccccc5OC(F)(F)F)noc4C4CC4)C(F)(F)C3)nc2)no1 (stereo not shown) [Example 64, 3-(6-(4-((5-cyclopropyl-3-(2-(trifluoromethoxy)phenyl)isoxazol-4-yl)methoxy)-3,3-difluoropiperidin-1-yl)pyridin-3-yl)-1,2,4-oxadiazol-5(4H)-one]
10000 nM	0.0746 µM	O=c1[nH]nc(-c2ccc(N3CCC(OCc4c(-c5c(Cl)cccc5Cl)noc4C4CC4)CC3)cn2)c(=O)[nH]1 [Example 46, 6-(5-(4-((5-cyclopropyl-3-(2,6-dichlorophenyl)isoxazol-4-yl)methoxy)piperidin-1-yl)pyridin-2-yl)-1,2,4-triazine-3,5(2H,4H)-dione]
702 nM	0.142 µM	C[C@H]1CN(c2ccc(-c3noc(=O)[nH]3)cc2)CC[C@@H]1OCc1c(-c2c(Cl)cccc2Cl)noc1C1CC1 [Example 33, 3-(4-((3S,4S)-4-((5-cyclopropyl-3-(2,6-dichlorophenyl)isoxazol-4-yl)methoxy)-3-methylpiperidin-1-yl)phenyl)-1,2,4-oxadiazol-5(4H)-one]

More lines, now with the values behind:

SMILES	EC50 [1]	EC50 [2]
O=c1[nH]c(-c2ccc(N3CCC(OCc4c(-c5c(Cl)cccc5Cl)noc4C4CC4)CC3)cn2)no1 [Example 9, 3-(5-(4-((5-cyclopropyl-3-(2,6-dichlorophenyl)isoxazol-4-yl)methoxy)piperidin-1-yl)pyridin-2-yl)-1,2,4-oxadiazol-5(4H)-one]	1590 nM	0.175 µM
O=c1cnn(-c2ccc(N3CCC(OCc4c(-c5c(Cl)cccc5Cl)noc4C4CC4)CC3)cc2)c(=O)[nH]1 [Example 17, 2-(4-(4-((5-cyclopropyl-3-(2,6-dichlorophenyl)isoxazol-4-yl)methoxy)piperidin-1-yl)phenyl)-1,2,4-triazine-3,5(2H,4H)-dione]	4730 nM	6.07 µM
C[C@@H]1C[C@H](OCc2c(-c3c(Cl)cccc3Cl)noc2C2CC2)CCN1c1ccc(-c2noc(=O)[nH]2)cc1 [Example 23, 3-(4-((2R,4R)-4-((5-cyclopropyl-3-(2,6-dichlorophenyl)isoxazol-4-yl)methoxy)-2-methylpiperidin-1-yl)phenyl)-1,2,4-oxadiazol-5(4H)-one]	27.7 nM	0.0031 µM
O=c1[nH]c(-c2ccc(N3CCC(OCc4c(-c5c(Cl)cccc5Cl)noc4C4CC4)CC3)cc2F)no1 [Example 13, 3-(4-(4-((5-cyclopropyl-3-(2,6-dichlorophenyl)isoxazol-4-yl)methoxy)piperidin-1-yl)-2-fluorophenyl)-1,2,4-oxadiazol-5(4H)-one]	82.3 nM	0.0035 µM
O=c1cc(-c2ccc(N3CCC(OCc4c(-c5c(Cl)cccc5Cl)noc4C4CC4)CC3)cc2)o[nH]1 [Example 16, 5-(4-(4-((5-cyclopropyl-3-(2,6-dichlorophenyl)isoxazol-4-yl)methoxy)piperidin-1-yl)phenyl)isoxazol-3(2H)-one]	195 nM	0.024 µM
O=c1[nH]c(-c2ccc(N3CCC(OCc4c(-c5c(F)cccc5F)noc4C4CC4)CC3)cc2)no1 [Example 26, 3-(4-(4-((5-cyclopropyl-3-(2,6-difluorophenyl)isoxazol-4-yl)methoxy)piperidin-1-yl)phenyl)-1,2,4-oxadiazol-5(4H)-one]	562 nM	0.111 µM
O=c1[nH]c(-c2ccc(N3CCC(OCc4c(-c5c(Cl)cccc5Cl)noc4C4CC4)CC3)nc2)no1 [Example 6, 3-(6-(4-((5-cyclopropyl-3-(2,6-dichlorophenyl)isoxazol-4-yl)methoxy)piperidin-1-yl)pyridin-3-yl)-1,2,4-oxadiazol-5(4H)-one]	372 nM	0.0044 µM
O=c1[nH]c(-c2ccc(N3[C@@H]4CC[C@H]3C[C@@H](OCc3c(-c5ccccc5OC(F)(F)F)noc3C3CC3)C4)nc2)no1 [Example 66, 3-(6-((1R,3r,5S)-3-((5-cyclopropyl-3-(2-(trifluoromethoxy)phenyl)isoxazol-4-yl)methoxy)-8-azabicyclo[3.2.1]octan-8-yl)pyridin-3-yl)-1,2,4-oxadiazol-5(4H)-one]	247 nM	0.003 µM
C[C@H]1C[C@@H](OCc2c(-c3c(Cl)cccc3Cl)noc2C2CC2)CCN1c1ccc(-c2noc(=O)[nH]2)cc1 [Example 22, 3-(4-((2S,4S)-4-((5-cyclopropyl-3-(2,6-dichlorophenyl)isoxazol-4-yl)methoxy)-2-methylpiperidin-1-yl)phenyl)-1,2,4-oxadiazol-5(4H)-one]	418 nM	0.0633 µM
